Where “and” joins values, the source holds several entries; their conditions need not be identical. Equal values may be shown once.
Tests used:
[1] = test system: panel of cell lines encompassing a number of tumour types; experiment: NCI cell line panel, growth inhibition by protein staining; assay type: cell-based; settings: data provided by the National Cancer Institute
Procedure: Tumour cell lines were cultured in 96-well plates. Growth of NCI cell lines was assessed using sulpho-rhodamine B staining (Skehan P., et al., J. Natl. Cancer Inst. 1990, 82, 1107-1112), that of the leukaemia lines with (4,5-dimethylthiazole-2-yl)-2,5-diphenyltetrazolium (MTT) staining (Mosmann T., J. Immun. Methods 1983, 65, 55-63) and that of the primary human tumour material by ^3H-thymidine incorporation (Marshall E.S., et al., J. Natl. Cancer Inst. 1992, 84, 341-344). Primary tumour material was cultured in 96-well plates in which the wells were coated with agarose to inhibit selectively the growth of normal cells. (Marshall E.S., et al., J. Natl. Cancer Inst. 1992, 84, 341-344). Primary cultures were incubated at 37°C in sealed perspex boxes containing a humidified atmosphere of 5% CO2 and 5% O2 in nitrogen for 7 days. 5-Methyl-[^3H]-thymidine (20 Ci.mmol^-1; 0.04 µCi per well), thymidine and 5-fluorodeoxyuridine (each at final concentrations of 0.5 µM) were added in medium to cultures (20 µl per well) 24 h before terminating the cultures. Cells were aspirated on to glass fibre filters using a multiple automated sample harvester (LKB Wallac OY Beta Harvester). The filter discs were washed for 15 seconds with water, dried, and the amount of tritium retained quantified by liquid scintillation.
IC50 values were defined as in Paull K.D., et al., J. Natl. Cancer Inst. 1989, 81:1088-1092, where growth, as indicated by staining or thymidine incorporation, corresponded to 50% of that of the control cultures. […] Variances of DELTA values were expressed as standard deviations in log10 units. Comparison of DELTA values was made using Pearson correlation coefficients. Resistance factors were defined as the ratios of IC50 values between the resistant line and the parent line. Statistical evaluation was performed either with NCI programmes, with RS/1 software (BBN Research Systems, Cambridge, MA, USA), or with Sigmaplot (Jandel Scientific, San Rafael, CA, USA).

[2] = test system: advanced colon 38 tumours; experiment: Tumour growth delay, advanced subcutaneous colon 38 tumours in mice; assay type: in vivo
Procedure: Colon 38 carcinoma was obtained from the Mason Research Institute (Worchester, MA, USA) and was grown in BDF1 hosts. Tumour fragments (1 mm^3) were implanted subcutaneously in anaesthetised mice. Tumours had grown to the appropriate size 9 days after implantation. A melanoma tumour line (WADH) was developed in the Cancer Research Laboratory. Tumour cells were grown in culture and 1 x 10^6 cells were implanted intradermally into the flank of nude (C57BI/J genetic background) mice. Mice were grown under sterile surroundings until tumours were of appropriate size.
Tumours were measured 3x (colon 38) or 2x (xeno-graft) weekly with callipers and tumour volumes calculated as 0.52a^2b, where a and b were the minor and major tumour axes. Tumour growth delays were measured at a time when tumour volumes of treated and control animals had increased by 4-fold.
The effects of five compounds, • (i) DACA • (ii) N-[2-(dimethylamino)ethyl]-9-methoxyphen-azine-1-carboxamide (compound 28 of J. Med. Chem., 1987, 30, 843-851), • (iii) N-[2-(dimethylamino) ethyl]-2-phenylquino-line-8-carboxamide (compound 6 of J. Med. Chem. 1988, 31, 1048-1052), • (iv) N-[2-(dimethylamino)ethyl]-2-(4-pyridyl)-guinoline-8-carboxamide (compound 18 of J. Med. Chem., 1989, 32, 396-401), and • (v) N-[2-(dimethylamino)ethyl]-9-bromo-dibenzo-[1,4]-dioxin-1-carboxamide (compound 20 of J. Med. Chem. 1992, 35, 258-266) on the growth of advanced colon 38 tumours in mice was investigated by implanting tumour fragments subcutaneously and allowing them to grow until they had reached a diameter of 5-8 mm.

[3] = test system: other human leukaemia cell lines; experiment: Growth inhibition of leukaemia lines, continuous exposure, MTT staining; assay type: cell-based; settings: range over other human leukaemia cell lines
Procedure: Tumour cell lines were cultured in 96-well plates. […] Primary cultures were incubated at 37°C in sealed perspex boxes containing a humidified atmosphere of 5% CO2 and 5% O2 in nitrogen for 7 days. 5-Methyl-[^3H]-thymidine (20 Ci.mmol^-1; 0.04 µCi per well), thymidine and 5-fluorodeoxyuridine (each at final concentrations of 0.5 µM) were added in medium to cultures (20 µl per well) 24 h before terminating the cultures.
1989, 81:1088-1092, where growth, as indicated by staining or thymidine incorporation, corresponded to 50% of that of the control cultures.
The effect of DACA on the growth of cultured cells was assessed by continuous drug exposure. […] These values were similar to those of other human leukaemia cell lines, which ranged from 290 to 760 nM (CEM-CCRF, 410 nM; MOLT-4, 290 nM; Daudi, 400 nM; Raji, 370 nM, U937, 590 nM; HL-60, 620 nM; K-562, 760 nM). Four multidrug-resistant cell lines, developed from JL and JB1 by in vitro exposure to increasing concentrations of doxorubicin (LD and B1D) or amsacrine (LA and B1A) (Finlay G.J., et al., J. Natl. Cancer Inst. 1990, 82, 662-667, Snow K., et al., Br. J. Cancer 1991, 63, 17-28) were tested.

SMILES: CN(C)CCNC(=O)c1cccc2cc3ccccc3nc12 [DACA, N-[2-(dimethylamino)ethyl]acridine-4-carboxamide]
- IC50 [1]: 2100 nM
- Growth delay ([2]; 100mg/kg each injection, ip, 2 doses, 0, 60 min, listed as (i)): 10 days and 12 days
- Growth delay ([2]; 4 injections at 30 minute intervals, 180 + 120 + 120 + 120 µmol/kg, q7 days x 3): 21 days
- Growth delay ([2]; day 11 after implantation, 3 injections at 4-day intervals): 4 days
- Growth delay ([2]; i.p. single maximum tolerated dose 150 mg/kg body weight, Figure 5): 5 days
- Growth delay ([2]; repetition of divided doses (200 mg/kg), Figure 5): 23 days
- Growth delay ([2]; total dose 100 (mg/kg) ip, single dose (SD)): 4 days
- Growth delay ([2]; total dose 150 ip, 2 doses, 0, 60 min): 5 days
- Growth delay ([2]; total dose 150 ip, SD): 5 days
- Growth delay ([2]; total dose 150x3 ip, SD every week x 3): 7 days
- Growth delay ([2]; total dose 200 ip, 2 doses, 0, 30 min): 7 days
- Growth delay ([2]; total dose 200 ip, 2 doses, 0, 60 min (2 expts)): 10 days and 12 days
- Growth delay ([2]; total dose 200 ip, 2 doses, 0, 24 hours): 6 days
- Growth delay ([2]; total dose 200 ip, 4 doses, 0, 30, 60, 90 min (65 + 45 + 45 + 45 mg/kg)): 6 days
- Growth delay (days) ([2]; total dose 200 ip, SD): toxic
- Growth delay ([2]; total dose 200 iv, 1 hour infusion): 7 days
- Growth delay ([2]; total dose 200 iv, 3 hour infusion): 6.5 days
- Growth delay ([2]; total dose 200x3 ip, (4 doses, 0, 30, 60, 90)x3): 23 days
- Growth delay ([2]; tumour 5-8 mm, after adjustment of the administration schedule): more than 21 days
- Growth delay ([2]; tumour 5-8 mm, intermittent schedule 270 mg/kg q7 days x 3): 3 days
- Growth delay ([2]; tumour 5-8 mm, intermittent schedule 400 mg/kg q7 days x 3): 7 days
- IC50 [3]: 290 to 760 nM

From patent EP0642343B1, “Acridine carboxamides for the treatment of cancer” (XENOVA LIMITED, priority 1992, dated 1993)
